Experimental findings from ChEMBL document CHEMBL1201862, “PubChem BioAssay data set” (2004) are described below.

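Following 48 hours of exposure in 96-well plates, responses at five concentrations were used to interpolate endpoints linearly. Here, GI50 denotes the concentration required for 50% inhibition of growth.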 The source made the active and inactive calls. No stated cut-off is given here; in the data, active = GI50 up to about 1.1 µM and inactive = higher. Where only a bound is given, the exact number is not on record here.

Among the test systems are OVCAR-8; HCC 2998; NCI-H460; HCT-116; ACHN; UO-31; MDA-MB-435; PC-3; UACC-62; MDA-N; SNB-19; HOP-62; SK-MEL-5; U-251; OVCAR-4; 786-0; NCI-H226; M14; SK-MEL-28; OVCAR-3.
What all share (assay): NCI-60 cell line screen, 48 h

In the case of `CC(C)OC(=O)[C@@H]1OC(C)(C)O[C@H]1C(=O)OC(C)C`, the GI50 with OVCAR-8, in the assay with HCC 2998, with NCI-H460, in the assay with HCT-116, in the assay on ACHN and in the assay with UO-31 was > 100 µM (inactive) in each case. Further, the GI50 with MDA-MB-435, in the assay with PC-3, with UACC-62, with MDA-N, in the assay on SNB-19 and in the assay with HOP-62 was > 100 µM (inactive) in each case. Further, the GI50 in the assay with SK-MEL-5, with U-251, with OVCAR-4, in the assay with 786-0 and in the assay on NCI-H226 was > 100 µM (inactive) throughout.
As to `C=C(C)CCC1CCCCC(CN(C)C)C1=O` (stereo not drawn), the GI50 in the assay with M14, in the assay with OVCAR-8, in the assay on NCI-H460, in the assay with HCT-116, with ACHN and in the assay with SK-MEL-28 was > 100 µM (inactive) each time. Besides, the GI50 in the assay with UO-31, with MDA-MB-435, in the assay with PC-3, in the assay on UACC-62, in the assay with MDA-N and in the assay with SNB-19 was > 100 µM (inactive) throughout. Moreover, the GI50 with HOP-62, in the assay with SK-MEL-5, in the assay with U-251, in the assay with OVCAR-4, in the assay on OVCAR-3 and in the assay on 786-0 was > 100 µM (inactive) each time. The GI50 in the assay with NCI-H226 was > 100 µM (inactive).
With `Cc1cc(=O)oc2c(CNC(C(=O)O)C(C)O)c(O)ccc12` (stereo not drawn), the GI50 in the assay on M14, with OVCAR-8, in the assay on NCI-H460, in the assay with HCT-116, in the assay on ACHN and in the assay on SK-MEL-28 was > 100 µM (inactive) each time. In addition, the GI50 in the assay on UO-31, with MDA-MB-435, with PC-3, in the assay with UACC-62, in the assay on MDA-N and in the assay with SNB-19 was > 100 µM (inactive) each time. For the same compound, the GI50 with HOP-62, in the assay with SK-MEL-5, in the assay with U-251, in the assay on OVCAR-4, in the assay with OVCAR-3 and with 786-0 was > 100 µM (inactive) in each case. Further, the GI50 in the assay with NCI-H226 was > 100 µM (inactive).
Take `O=[N+]([O-])c1cc([N+](=O)[O-])c(Nn2c3ccccc3c3ccccc32)c([N+](=O)[O-])c1`: the GI50 with M14 is 2.17 µM (inactive); with OVCAR-8, 2.55 µM (inactive); with HCC 2998 it was 2.74 µM (inactive); in the assay with NCI-H460, 1.86 µM (inactive); with ACHN it was 1.2 µM (inactive); in the assay with SK-MEL-28, 3.3 µM (inactive). Besides, the GI50 in the assay on UO-31 is 2.07 µM (inactive); in the assay with MDA-MB-435 it was 1.56 µM (inactive); with PC-3, 1.25 µM (inactive); with UACC-62, 0.933 µM (active); in the assay on MDA-N it was 2.38 µM (inactive); with SNB-19, 3.04 µM (inactive). Besides, the GI50 with HOP-62 is 1.87 µM (inactive); in the assay on SK-MEL-5 it was 1.94 µM (inactive); in the assay with U-251, 1.82 µM (inactive); in the assay on OVCAR-4, 2.12 µM (inactive); with 786-0, 2.74 µM (inactive); in the assay on NCI-H226 it was 1.4 µM (inactive).
